Experiments:
[1] = Chemical stability in propellant in uncoated aluminium cans (HPLC assay and total impurities); conditions: for % Assay (LC) / % total impurities: uncoated aluminium cans
[2] = In vitro aerosolization performance from MDI (Next Generation Impactor); format: physicochemical
[3] = HFA-134a, T = 1M @ 25° C./60% RH
[4] = HFA-134a, T = 1M @ 40° C./75% RH
[5] = HFA-134a, T = 3M @ 25° C./60% RH
[6] = HFA-134a, T = 3M @ 40° C./75% RH
[7] = HFA-152a, T = 1M @ 25° C./60% RH
[8] = HFA-152a, T = 1M @ 40° C./75% RH
[9] = HFA-152a, T = 3M @ 25° C./60% RH
[10] = HFA-152a, T = 3M @ 40° C./75% RH
[11] = HFA-134a propellant, T = 0, combination formulation, MDI
[12] = HFA-134a propellant, T = 1 month @ 40° C./75% RH, valve down
[13] = HFA-152a propellant, T = 0, combination formulation, MDI
[14] = HFA-152a propellant, T = 1 month @ 40° C./75% RH, valve down

| % Assay (LC) ([1]; HFA-134a, Initial time T = 0) [%] | % total impurities ([1]; HFA-134a, Initial time T = 0) | % Assay (LC) [1, 3] [%] | % total impurities [1, 3] [%] | % Assay (LC) [1, 4] [%] | % total impurities [1, 4] [%] | % Assay (LC) [1, 5] [%] | % total impurities [1, 5] [%] | % Assay (LC) [1, 6] [%] | % total impurities [1, 6] [%] | % Assay (LC) ([1]; HFA-152a, Initial time T = 0) [%] | % total impurities ([1]; HFA-152a, Initial time T = 0) | % Assay (LC) [1, 7] [%] | % total impurities [1, 7] | % Assay (LC) [1, 8] [%] | % total impurities [1, 8] [%] | % Assay (LC) [1, 9] [%] | % total impurities [1, 9] | % Assay (LC) [1, 10] [%] | % total impurities [1, 10] [%] | further results | Structure (SMILES) |
| --- | --- | --- | --- | --- | --- | --- | --- | --- | --- | --- | --- | --- | --- | --- | --- | --- | --- | --- | --- | --- | --- |
| 98.5 | <LoQ | 98.2 | 0.19 | 97.8 | 0.38 | 94.8 | 0.58 | 93.8 | 0.69 | 98.5 | <LoQ | 98.6 | <LoQ | 98.4 | 0.18 | 97.6 | <LoQ | 97.2 | 0.58 | Emitted Dose (μg ± S.D.) [2, 11]: 119.0 ± 2.0 µg; FPFED (%) fine particle fraction of the emitted dose [2, 11]: 32.6 ± 0.9%; Fine Particle Dose (μg ± S.D.) [2, 11]: 38.8 ± 1.7 µg; MMAD ± GSD (μm) [2, 11]: 3.0 ± 1.8 μm; Emitted Dose (μg ± S.D.) [2, 12]: 112.8 ± 2.3 µg; FPFED (%) fine particle fraction of the emitted dose [2, 12]: 29.0 ± 1.9%; Fine Particle Dose (μg ± S.D.) [2, 12]: 32.8 ± 1.9 µg; MMAD ± GSD (μm) [2, 12]: 3.1 ± 1.9 μm; Emitted Dose (μg ± S.D.) [2, 13]: 111.8 ± 0.7 µg; FPFED (%) fine particle fraction of the emitted dose [2, 13]: 46.1 ± 1.5%; Fine Particle Dose (μg ± S.D.) [2, 13]: 51.5 ± 1.9 µg; MMAD ± GSD (μm) [2, 13]: 3.0 ± 1.9 μm; Emitted Dose (μg ± S.D.) [2, 14]: 105.6 ± 0.8 µg; FPFED (%) fine particle fraction of the emitted dose [2, 14]: 45.2 ± 1.2%; Fine Particle Dose (μg ± S.D.) [2, 14]: 48.5 ± 1.5 µg; MMAD ± GSD (μm) [2, 14]: 2.9 ± 1.9 μm | CCC(=O)O[C@]1(C(=O)SCF)[C@H](C)C[C@H]2[C@@H]3C[C@H](F)C4=CC(=O)C=C[C@]4(C)[C@@]3(F)[C@@H](O)C[C@@]21C [Fluticasone Propionate, fluticasone propionate] |
| 98.5 | 0.19% | 98.2 | 0.28 | 97.8 | 0.39 | 94.8 | 1.15 | 93.8 | 1.38 | 98.5 | 0.19% | 98.6 | 0.25% | 98.4 | 0.35 | 97.6 | 0.55% | 97.2 | 0.82 | MMAD ([2]; HFA-134a based formulations): around 2.6 μm; Emitted Dose (μg ± S.D.) [2, 11]: 43.7 ± 0.2 µg; Fine Particle Dose (μg ± S.D.) [2, 11]: 12.6 ± 0.1 µg; MMAD ± GSD (μm) [2, 11]: 2.6 ± 2.4 μm; Emitted Dose (μg ± S.D.) [2, 12]: 38.7 ± 0.6 µg; Fine Particle Dose (μg ± S.D.) [2, 12]: 11.4 ± 0.4 µg; MMAD ± GSD (μm) [2, 12]: 2.8 ± 2.3 μm; Emitted Dose (μg ± S.D.) [2, 13]: 45.2 ± 0.7 µg; Fine Particle Dose (μg ± S.D.) [2, 13]: 21.0 ± 1.0 µg; MMAD ± GSD (μm) [2, 13]: 3.1 ± 2.2 μm; Emitted Dose (μg ± S.D.) [2, 14]: 44.2 ± 0.6 µg; Fine Particle Dose (μg ± S.D.) [2, 14]: 20.7 ± 0.8 µg; MMAD ± GSD (μm) [2, 14]: 3.0 ± 2.2 μm | C[N+]1(C)CCC(OC(=O)C(O)(c2ccccc2)C2CCCC2)C1 (stereo not shown) [Glycopyrronium Bromide, glycopyrronium bromide] |
|  |  |  |  |  |  |  |  |  |  |  |  |  |  |  |  |  |  |  |  | chemical stability under accelerated test conditions, HFA-152a rather than HFA-134a ([1]; HFA-152a as aerosolization propellant versus HFA-134a): superior chemical stability | CCc1cc2c(cc1CC)CC(NC[C@H](O)c1ccc(O)c3[nH]c(=O)ccc13)C2 [Indacaterol, indacaterol] |
